Experimental data: patent publication US4089947A, “Antibiotic compositions containing validamycin compounds” (priority 1976, dated 1978)
“And” between values parts separate entries of the source, which are not always exact repeats. Equal values may be shown once.

Key:
[1] = tested on: Rhyzoctonia solani; test: Cucumber damping-off control test; format: in vivo; conditions: 14 days after sowing
Procedure: Cucumber damping-off control test
Rhyzoctonia solani is cultured on barley medium at 28° C for 5 days. A field soil sample is packed into clay pots 9 cm in diameter, which are then sterilized with steam. The chaff inoculum is evenly worked into the cover soil of each pot to the depth of about 3 cm, at the rate of 2g./pot. The pots are kept in an incubation chamber at 28° C for 4 days and, then, transferred to a greenhouse.
As per Experiment 1, the drug is sprayed onto the soil surface at the rate of 30 ml./6 pots/group.
Healthy seeds of cucumber (variety: Yonyo) are sown by burial in the pots immediately after treatment, at the rate of 10 seeds/pot. The pots are then placed in a greenhouse at 32°-28° C.
14 days after sowing, the results are evaluated against the following coefficients of lesion and the degrees of damage are calculated.
Coefficients of lesion (I)
0.5 : Root hairs alone are slightly affected.
1 : Aerial portions near soil surface and roots affected.
2 : Early stage of damping-off.
3 : Affected at germination; growth inhibited.
Degree of damage (%) =(Σ(nI))/3 × N × 100 wherein n means the number of samples corresponding to each coefficient of lesion and N means the total number of plants.

[2] = pKa' (neutralization, in aqueous solution); format: physicochemical
Description: 3. The elementary analysis, the molecular formulas as calculated therefrom, pKa' values, neutralization equivalents (molecular weight) and optical rotation values are given in Table 2.

[3] = tested on: Pellicularia sasakii; test: Rice sheath blight control test, remedial; format: in vivo; conditions: inoculation 3 days before application, untreated 34.4cm
Procedure: (§1) Rice sheath blight control test
(§2) Rice Plants (variety: Kinmaze) are planted in earthen pots 9 cm in diameter, 3 stocks per pot. Seedlings 80 days after potting are tested and 6 pots each of them are grouped.
(§3) Pathogenic fungi Pellicularia sasakii is cultivated on a plate of potato infusion-sugar-agar at 30°C for 48 hours, and its agar disc 10mm in diameter is cut out from a peripheral colony. The disc is inserted into the inside space of the leaf sheath near the soil surface, a disc per stem. The pots are kept in a PVC shelter at the temperature of 32°-25° C and the relative humidity of 100-70%. Inoculation is carried out immediately after the applied drug has been air-dried in the prophylactic test, and 3 days before application in the remedial test.
(§4) 10 days after application of the drug, the length of each stem from ground level to the upper edge of the lesion is directly measured.

[4] = tested on: Cladosporium fulvum; test: Tomato leaf mold control test; format: in vivo; conditions: 50 ppm; 14 days after inoculation; inoculated 3 days before application
Procedure: Tomato leaf mold control test
Tomato plants (variety: ponterosa) are planted in 12 cm in diameter pots, one plant per pot. The seedlings 50 days after potting are used, 6 pots/group.
Applied at the rate of 100 ml./6 pots/group as per Experiment 1.
Pathogenic fungi Cladosporium fulvum is cultured on a potato infusion-sucrose plate at 20° C for 14 days, and a suspension of conidia (5×10^5 /ml.) is prepared from the culture.
The plants are spray-inoculated with the suspension 3 days before application of the drug, at the rate of 5 ml. per pot. The pots are kept in an inoculation chamber at 25° C for 24 hours, and, then they are transferred to a greenhouse.
14 days after inoculation, the specific ratio of the average area of lesion in the leaves is measured.

[5] = tested on: plant diseases; test: Control of plant diseases (general statement); format: in vivo; conditions: for controlling effect against plant diseases, for example, the sheath blight of the rice plant: application in vivo; for effectiveness against sheath blight and stem rot of rice plant, damping off and sclerotial blight of vegetables, flowering plants and lumber seedlings: in vivo
[6] = Solubilities; format: physicochemical; conditions: methanol
[7] = tested on: men and beasts, as well as to fish; test: Harmlessness to men, beasts and fish (general statement); conditions: in vivo
[8] = tested on: useful plants; test: Effect on useful plants (general statement); format: in vivo; conditions: even when applied in a high concentration
[9] = tested on: bacteria and fungi; test: Antimicrobial potency / growth inhibition in vitro; format: cell-based
[10] = tested on: Pellicularia sasakii; test: Abnormal branching of hyphal tips of Pellicularia sasakii (agar dilution bioassay); format: cell-based; conditions: for highest dilution factor that causes an abnormal branching at the hyphal tips of Pellicularia sasakii: 1 mg./ml. aqueous solution as stock solution; for dilution unit (maximum dilution which produces abnormal branching): aqueous solution containing 1000 γ/ml., 27° C for 40 hours
Procedure: Therefore, the bioassay of the antibiotics should be conducted in the following manner.
Pellicularia sasakii is used as the test organism employing plain agar as the assay medium. The test organism is cultivated on a potato (sucrose) agar slant for 2 to 5 days, and the resulting culture is used to inoculate at the center of a 9-cm Petri dish plate of modified Pfeffer's medium, which is then incubated at 27° C for 2 days. By the end of this period, the mycelium will have spread over the entire surface of the plate. The growth on the circumference about 3 to 3.5 cm in radius from the center is cut out with a cork borer and the agar disc thus obtained is used as the inoculum.
A serial dilution series of agar plants containing varying concentrations of the antibiotics is prepared in the same manner as a conventional agar dilution method.
A glass disc of 8 mm in diameter and about 0.2 mm thick, is placed in the center of each of the aforementioned dilution series of agar plates, and the agar disc inoculum is then placed on the glass disc. After incubation at 27° C for 40 hours, the result is evaluated. […] The term dilution unit means the value of maximum dilution which produces such abnormal branching.
Modified Pfeffer's medium, which is employed in this assay, has the following composition.
Before using the medium, the following vitamins are added in the specified amounts. (Weight per ml. of medium)
When a 1 mg./ml. aqueous solution of each of validamycins C, D, E and F and validoxylamines A and B is used as a stock solution, the highest dilution factor that causes an abnormal branching at the hyphal tips of Pellicularia sasakii is as follows.

[11] = tested on: Pellicularia sasakii; test: Rice sheath blight control test, preventive (prophylactic); format: in vivo; conditions: 10 days after application, untreated 34.4cm
Procedure: as §1, §2, §3, §4

[12] = tested on: Oryzias latipes; test: Acute toxicity for Oryzias latipes (median lethal dose, 48 hours); format: in vivo; conditions: leaving in water solution
Procedure: (§5) The toxicity of the antibiotics can be confirmed, for instance, by administering each of the validamycins C, D, E and F, and validoxylamines A and B, intravenously to mice and measuring the LD50 value, or by measuring the median lethal dose (48 hours) for Oryzias latipes.

[13] = tested on: Mice; test: Acute toxicity in mice, intravenous injection; format: in vivo
Procedure: as §5

| Compound | Degree of damage ([1]; 5 ppm) [%] | Degree of damage ([1]; 20 ppm) [%] | Degree of damage ([1]; 80 ppm) [%] | pKa' [2] | Remedial effect (percent of the average length of lesion/stem per control untreated) ([3]; 3 ppm) [%] | Remedial effect (percent of the average length of lesion/stem per control untreated) ([3]; 10 ppm) [%] | Remedial effect (percent of the average length of lesion/stem per control untreated) ([3]; 30 ppm) [%] | Remedial effect (percent of the average length of lesion/stem per control untreated) ([3]; 100 ppm) [%] | Remedial effect (percent of the average length of lesion/stem per control untreated) ([3]; 300 ppm) [%] | Specific area of lesion [4] | controlling effect against plant diseases, for example, the sheath blight of the rice plant [5] | effectiveness against sheath blight and stem rot of rice plant, damping off and sclerotial blight of vegetables, flowering plants and lumber seedlings [5] | solubility in methanol [6] | harmfulness to men and beasts, as well as to fish [7] | effect on germination, growth, yield and other features of useful plants [8] | Preventive effect (percent of the average length of lesion/stem per control untreated) ([11]; 3 ppm) [%] | Preventive effect (percent of the average length of lesion/stem per control untreated) ([11]; 10 ppm) [%] | Preventive effect (percent of the average length of lesion/stem per control untreated) ([11]; 30 ppm) [%] | Preventive effect (percent of the average length of lesion/stem per control untreated) ([11]; 100 ppm) [%] | Preventive effect (percent of the average length of lesion/stem per control untreated) ([11]; 300 ppm) [%] | other results |
| --- | --- | --- | --- | --- | --- | --- | --- | --- | --- | --- | --- | --- | --- | --- | --- | --- | --- | --- | --- | --- | --- |
| O=[N+]([O-])c1c(Cl)c(Cl)c(Cl)c(Cl)c1Cl [Pentachloronitrobenzene, reference compound] | 100 | 100 | 100 |  |  |  |  |  |  |  |  |  |  |  |  |  |  |  |  |  |  |
| OCC1CC(NC2C=C(COC3OC(CO)C(O)C(O)C3O)C(O)C(O)C2O)C(O)C(O)C1OC1OC(CO)C(O)C(O)C1O (stereo not shown) [Validamycin C] | 100 | 84 | 0 | 6.0 ± 0.2 | 68 | 22 | 12 | 10 | 7 | 18% | excellent controlling effect | very effective | more sparingly soluble | substantially harmless | do not substantially affect | 46 | 34 | 4 | 1 | 0 | antimicrobial potency / growth inhibition of bacteria and fungi in vitro [9]: no antimicrobial potency; highest dilution factor that causes an abnormal branching at the hyphal tips of Pellicularia sasakii [10]: 100; dilution unit (maximum dilution which produces abnormal branching) [10]: 100 dilution unit/ml.; TLm [12]: > 1000 ppm; LD50 [13]: > 2000 mg/kg |
| OCC1=C[C@@H](N[C@@H]2C[C@@H](CO[C@@H]3O[C@H](CO)[C@@H](O)[C@H](O)[C@H]3O)[C@H](O)[C@@H](O)[C@H]2O)[C@H](O)[C@H](O)[C@H]1O [Validamycin D] | 100 | 93 | 0 | 6.0 ± 0.2 |  | 99 | 20 | 11 | 8 | 18% and 25% | excellent controlling effect | very effective | soluble | substantially harmless | do not substantially affect | 28 | 5 | 1 | 0 | 0 | antimicrobial potency / growth inhibition of bacteria and fungi in vitro [9]: no antimicrobial potency; highest dilution factor that causes an abnormal branching at the hyphal tips of Pellicularia sasakii [10]: 10; dilution unit (maximum dilution which produces abnormal branching) [10]: 10 dilution unit/ml.; TLm [12]: > 1000 ppm; LD50 [13]: > 2000 mg/kg |
| OCC1=C[C@H](N[C@H]2C[C@H](CO)[C@@H](O[C@@H]3O[C@@H](CO)[C@@H](O[C@H]4O[C@@H](CO)[C@@H](O)[C@H](O)[C@H]4O)[C@H](O)[C@H]3O)[C@@H](O)[C@H]2O)[C@@H](O)[C@H](O)[C@H]1O [Validamycin E] | 10 | 0 | 0 | 6.1 ± 0.2 | 14 | 12 | 11 | 5 | 3 | 2% | excellent controlling effect | very effective | more sparingly soluble | substantially harmless | do not substantially affect | 3 | 2 | 0 | 0 | 0 | Remedial effect (percent of the average length of lesion/stem per control untreated) ([3]; 1 ppm): 41%; antimicrobial potency / growth inhibition of bacteria and fungi in vitro [9]: no antimicrobial potency; highest dilution factor that causes an abnormal branching at the hyphal tips of Pellicularia sasakii [10]: 70,000 - 80,000; dilution unit (maximum dilution which produces abnormal branching) [10]: 80000 dilution unit/ml.; TLm [12]: > 1000 ppm; LD50 [13]: > 2000 mg/kg |
| Methyl arsonic acid ammonium complex salt [MAFA, reference compound] |  |  |  |  | 89 | 30 | 15 | 13 | 10 |  |  |  |  |  |  | 76 | 51 | 0 | 0 | 0 |  |
